system: passive cutaneous anaphylaxis (PCA); assay: IgE-mediated passive cutaneous anaphylaxis (PCA) test in rats, oral administration; assay type: in vivo; conditions: rat PCA, p.o., pretreatment time 15'; KB = dose reducing to one half the activity of the sensitizing serum; lower = more active
Text: The compounds of the invention have anti-allergic activity, and are therefore useful in the prevention and treatment of all the affections of allergic origin, e.g. bronchial asthma, allergic rhinitis, hay fever, urticaria and dermatosis. The anti-allergic activity of the compounds of the invention is shown, e.g., by the first that they are active in the passive cutaneous anaphylaxis (PCA) test in rats, according to Goose J. and Blair A. M. J. N. (Immunology, 16, 749, 1969).
The activity data are expressed in terms of KB defined as the dose of active compound capable of reducing to one half the activity of the serum used for the sensitization:
B=dose of antagonist compound expressed in mg/kg;
DR=dose ratio: antilogarithm of the distance between the Log dose effect functions of the scrum with and without antagonist (J. H. Gaddum et al, Exp. Physiol., 1955, 40, 49).
The KB is adopted here because this value is independent both of the dose of the drug and the reagin concentration used for the sensitization.
The lower the KB value, the higher the anti-allergic activity.
The anti-allergic activity was determined e.g. by the inhibition of the IgE-mediated PCA according to Goose J. and Blair A. M. J. N. (Immunology, 16, 749, 1969) using homocytotropic antibodies raised in rats following the method of Mota I., Immunology, 7, 681, (1964).
The tested compounds were administered per os (p.o) 15 minutes before the administration of the antigen: at least 6 rats were used for each dose.

| Compound | Anti-allergic activity KB |
| --- | --- |
| CCCc1c(/C=C/c2ccccc2)nc2ccc(C(=O)O)cn2c1=O [K 13808, 2-trans-(2-phenyl-ethenyl)-3-propyl-4-oxo-4H-pyrido[1,2-a]pyrimidine-7-carboxylic acid] | 2.16 mg/kg |
| O=C(O)c1cc(=O)c2c(OCC(O)COc3cccc4oc(C(=O)O)cc(=O)c34)cccc2o1 [Disodium Cromoglycate, reference compound] | > 200 mg/kg |
| CCCc1c(/C=C/c2cccc(OC)c2)nc2ccc(C(=O)O)cn2c1=O [FCE 20183, 2-trans-[2-(3-methoxy-phenyl)-ethenyl]-3-propyl-4-oxo-4H-pyrido[1,2-a]pyrimidine-7-carboxylic acid] | 1.48 mg/kg |
| CCCc1c(/C=C/c2ccccc2)nc2n(c1=O)C1CC1(C(=O)O)C=C2 (stereo not drawn) [FCE 20188, 2-trans-(2-phenyl-ethenyl)-3-propyl-6,7-methylen-4-oxo-4H-pyrido[1,2-a]pyrimidine-7-carboxylic acid] | 2.34 mg/kg |
| CCc1c(/C=C/c2ccccc2)nc2n(c1=O)C1CC1(C(=O)O)C=C2 (stereo not drawn) [K 13830, 2-trans-(2-phenyl-ethenyl)-3-ethyl-6,7-methylen-4-oxo-4H-pyrido[1,2-a]pyrimidine-7-carboxylic acid] | 1.15 mg/kg |
| CCc1c(/C=C/c2cccc(OC)c2)nc2n(c1=O)C1CC1(C(=O)O)C=C2 (stereo not drawn) [FCE 20509, 2-trans-[2-(3-methoxy-phenyl)-ethenyl]-3-ethyl-6,7-methylen-4-oxo-4H-pyrido[1,2-a]pyrimidine-7-carboxylic acid] | 0.61 mg/kg |
| CCCc1c(/C=C/c2ccccc2C)nc2ccc(C(=O)O)cn2c1=O [FCE 20099, 2-trans-[2-(2-methyl-phenyl)-ethenyl]-3-propyl-4-oxo-4H-pyrido[1,2-a]pyrimidine-7-carboxylic acid] | 2.02 mg/kg |
| CCCc1c(/C=C/c2cccc(OC)c2OC)nc2n(c1=O)C1CC1(C(=O)O)C=C2 (stereo not drawn) [FCE 20461, 2-trans-[2-(2,3-dimethoxy-phenyl)-ethenyl]-3-propyl-6,7-methylen-4-oxo-4H-pyrido[1,2-a]pyrimidine-7-carboxylic acid] | 1.22 mg/kg |

system: not listed separately; assay: approximate acute toxicity (LD50) in the mouse, per os; conditions: in vivo, po, single administration of increasing doses, measured on the seventh day
Description: For example, the approximate acute toxicity (LD50) of the compound 2-trans-(2-phenyl-ethenyl)-3-propyl-4-oxo-4H-pyrido(1,2-a)pyrimidine-7-carboxylic acid in the mouse, determined with single adminstration of increasing doses and measured on the seventh day of treatment is per os higher than 800 mg/kg. Analogous toxicity data have been found for the other compounds of the invention.

| Compound | LD50 at 168 h |
| --- | --- |
| CCCc1c(/C=C/c2ccccc2)nc2ccc(C(=O)O)cn2c1=O [K 13808, 2-trans-(2-phenyl-ethenyl)-3-propyl-4-oxo-4H-pyrido[1,2-a]pyrimidine-7-carboxylic acid] | > 800 mg/kg |

Source: US4341780A, “Substituted pyrido [1,2-a] pyrimidines useful as anti-allergic, anti-ulcer and anti-diabetic agents” (Farmitalia Carlo Erba S.p.A., priority 1979, dated 1982)
